Source: US20210214421A1 (priority 2018, published 2021)

Experiments:
Assay in all cases: microbe, parasite or virus in culture
Format in all cases: cell-based
[1] = tested on: Staphylococcus pseudintermedius strain 69687; settings: Staphylococcus pseudintermedius, 69687, 24 h, read-out: minimal inhibiting concentration (breakthrough point)
[2] = tested on: Staphylococcus pseudintermedius strain 23929; settings: Staphylococcus pseudintermedius, 23929, 24 h, read-out: minimal inhibiting concentration (breakthrough point)
[3] = tested on: Staphylococcus pseudintermedius strain GL151A; settings: 24 h, read-out: minimal inhibiting concentration (breakthrough point)
[4] = tested on: Staphylococcus pseudintermedius strain HH15; settings: HH15, 24 h, read-out: minimal inhibiting concentration (breakthrough point)

Measured: MIC

CCC[C@@H]1C[C@@H](C(=O)N[C@@H]([C@H]2O[C@H](SC)[C@H](O)[C@@H](O)[C@H]2O)[C@H](C)Cl)N(C)C1 [clindamycin]
625 µg/mL: [1] | [2] | [3] | [4]
